Assay results: patent publication US20250269043A1, “TARGETED BIFUNCTIONAL DEGRADERS” (YALE UNIVERSITY, priority 2019, published 2025)

Biological target: T1, human MIF (Homo sapiens, UniProt P14174)
T1 sequence (P14174 2-115 limits assumed): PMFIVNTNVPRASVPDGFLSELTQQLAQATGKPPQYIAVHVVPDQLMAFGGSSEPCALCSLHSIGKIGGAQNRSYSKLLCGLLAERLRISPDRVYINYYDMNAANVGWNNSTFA
Test: Depletion of human MIF from cell culture supernatant (sandwich ELISA)
Format: cell-based
Conditions: for removal of MIF from supernatant: after 48 hours, FIG. 129
Method: The ability of bifunctional MIF-binding molecules to mediate the depletion of human MIF from cell culture was investigated. In these assays, human MIF was present at a concentration of 100 nM, and a sandwich ELISA assay was utilized to measure the concentration of human MIF remaining in the cell culture supernatant. The closely related bifunctional molecules MIF-GN3, MIF-PEG2-GN3, and MIF-PEG4-GN3 were used, as well as the structurally dissimilar molecule MIF-NVS-PEG3-GN3. […] Based on the ease of its synthesis and its efficacy in this experiment, MIF-GN3 was utilized for further studies. It was next investigated whether the MIF inhibitor 3w mediates MIF depletion from cell culture supernatant. […] When cells were treated with 3w, no depletion of exogenous MIF protein was observed after 24 hours (FIG. 128B).
Bifunctional molecules containing optimized ASGPR-binding motifs are also capable of mediating MIF depletion from cell culture supernatant (FIG. 129). The MIF-binding molecule MIF-AF1, which contains only a single ASGPR-binding sugar, was not effective at mediating depletion of MIF from supernatant at any concentration tested. It is hypothesized that this is due to the compound's low predicted affinity for ASGPR (μM range). […] At a concentration of either 200 nM or 1 μM, MIF-AF2 mediated nearly 100%/o depletion of MLF from the cell culture supernatant after 48 hours. […] In contrast to these molecules, which utilize optimized synthetic ASGPR ligands, the GalNAc-based molecule MIF-GN3 mediated only 67.0% and 56.0% removal of MIF from supernatant after 48 hours at concentrations of 1 μM and 200 nM, respectively. […] At a concentration of 40 nM (4.0 pmol of molecule), MIF-AF3 mediates the removal of 83.2% of MIF present in the cell culture supernatant, or 8.32 pmol of human MIF protein. Therefore, it was concluded that under the conditions of this experiment, MIF-AF3 mediates the depletion of 2.08 molar equivalents of MIF protein.

CC(=O)N[C@H]1[C@H](OCCOCCOCCNC(=O)CCOCC(COCCC(=O)NCCOCCOCCO[C@@H]2O[C@H](CO)[C@H](O)[C@H](O)[C@H]2NC(C)=O)(COCCC(=O)NCCOCCOCCO[C@@H]2O[C@H](CO)[C@H](O)[C@H](O)[C@H]2NC(C)=O)NC(=O)CNC(=O)CCCOc2ccc3nc(-c4cn(-c5ccc(O)c(F)c5)nn4)ccc3c2)O[C@H](CO)[C@H](O)[C@@H]1O [MIF-GN3]
removal of MIF from supernatant (200 nM): 56.0% | removal of MIF from supernatant (1 μM): 67.0% | depletion of human MIF from cell culture supernatant (human MIF 100 nM, 24 hours, FIG. 128A): effective
